From patent US9115120B2, “Heterocyclic modulators of HIF activity for treatment of disease” (Board of Regents, The University of Texas System, priority 2012, dated 2015)
Where a name gives a salt, the structure may show the parent alone.

System: 293T-HRE-GFP-luc cells
Assay: Cell-Based Reporter Assay for IC50 Determinations
Details: 30 min normoxia then 6 hrs hypoxia (1% O2), luminescence, four-parameter logistic fit, read-out: Activity (IC50, HRE luciferase reporter)
Protocol: Cell-Based Reporter Assay for IC50 Determinations
293T-HRE-GFP-luc cells were routinely maintained in DMEM media (high glucose version with GlutaMAX and HEPES, Gibco, catalog #10564) supplemented with 10% fetal bovine serum and 2 μg/mL puromycin (Invitrogen, catalog #A11138-03) using a humidified incubator (normoxia conditions consisting of 37° C., 5% CO2 and ambient O2).
In preparation for the reporter assay, cells were harvested and resuspended in DMEM media (high glucose version with GlutaMAX and HEPES) supplemented with 10% fetal bovine serum. Cells were inoculated into 384-well white Culturplates (Perkin Elmer catalog #6007680) at a density of 12,000 cells/well in a volume of […]. The microplates were incubated overnight (approximately 17-19 hours) at 37° C. with 5% CO2 and ambient O2. Stock solutions of the test compounds were prepared in DMSO (Sigma, Catalog #D2650) and serially diluted 1:3 using DMSO. Compounds were additionally diluted (1:50) with culturemedium and 10 µL were added per well to the Culturplate. Following a 30 min. incubation under normoxia conditions, the plates were incubated in hypoxia for 6 hrs. (37° C., 5% CO2 and 1% O2). Steadylite Plus (Perkin Elmer, catalog #6016751) was then added ([…]), the plates were mixed on an orbital shaker at room temperature in the dark for 15 min., and luminescence was measured using an Envision plate reader (Perkin Elmer). IC50 values were calculated using a four-parameter logistic curve fit. Results are shown below in Table 2; ND indicates no data.

**Q.** `Cc1oc(-c2nc(-c3ccc(OC(F)(F)F)cc3)no2)nc1Cc1cccc(N2CCN(C)CC2)c1` [Example 5, 1-methyl-4-(3-((5-methyl-2-(3-(4-(trifluoromethoxy)phenyl)-1,2,4-oxadiazol-5-yl)oxazol-4-yl)methyl)phenyl)piperazin-1-ium trifluoroacetate] was tested. Which IC50 did it give?
**A.** < 100 nM

**Q.** How did the IC50 turn out when `Cc1oc(-c2nc(-c3ccc(OC(F)(F)F)cc3)no2)nc1Cc1cccc(N2CCOCC2)c1` [Example 11, 4-(3-((5-Methyl-2-(3-(4-(trifluoromethoxy)phenyl)-1,2,4-oxadiazol-5-yl)oxazol-4-yl)methyl)phenyl)morpholine] was run?
**A.** < 100 nM

**Q.** `Cc1oc(-c2nc(-c3ccc(OC(F)(F)F)cc3)no2)nc1Cc1cccc(N2CCCCC2)c1` [Example 13] was tested. Which IC50 did it give?
**A.** < 100 nM

**Q.** How did the IC50 turn out when `Cn1cc(-c2nc(-c3ccc(OC(F)(F)F)cc3)no2)nc1Cc1ccnc(N2CCNCC2)c1` [Example 12, 4-(4-((1-methyl-4-(3-(4-(trifluoro-methoxy)phenyl)-1,2,4-oxadiazol-5-yl)-1H-imidazol-2-yl)methyl)pyridin-2-yl)piperazin-1-ium formate] was run?
**A.** 1000 to 10000 nM

**Q.** For `Cc1nc(-c2nc(-c3ccccc3)co2)sc1Cc1cccc(N2CCN(C)CC2)c1` [Example 3, 2-(4-Methyl-5-(3-(4-methylpiperazin-1-yl)benzyl)thiazol-2-yl)-4-phenyloxazole], which IC50 is on record?
**A.** 1000 to 10000 nM

**Q.** With `CN1CCN(c2cc(Cc3nc(-c4nc(-c5ccc(OC(F)(F)F)cc5)no4)cn3C)ccn2)CC1` [Example 10, 5-(1-Methyl-2-((2-(4-methylpiperazin-1-yl)pyridin-4-yl)methyl)-1H-imidazol-4-yl)-3-(4-(trifluoromethoxy)phenyl)-1,2,4-oxadiazole] as the compound, how does the IC50 read?
**A.** < 100 nM

**Q.** For `Cc1nc(-c2nc(-c3ccc(OC(F)(F)F)cc3)no2)oc1Cc1cccc(N2CCN(C)CC2)c1` [Example 7, 1-Methyl-4-(3-((4-methyl-2-(3-(4-(trifluoromethoxy)phenyl)-1,2,4-oxadiazol-5-yl)oxazol-5-yl)methyl)phenyl)piperazin-1-ium trifluoroacetate], which IC50 is on record?
**A.** < 100 nM

**Q.** With `Cc1oc(-c2nc(-c3ccc(OC(F)(F)F)cc3)no2)nc1Cc1cccc(N(C)C)c1` [Example 14, N,N-dimethyl-3-((5-methyl-2-(3-(4-(trifluoromethoxy)phenyl)-1,2,4-oxadiazol-5-yl)oxazol-4-yl)methyl)aniline] as the compound, how does the IC50 read?
**A.** < 100 nM

**Q.** `Cc1sc(-c2nc(-c3ccc(OC(F)(F)F)cc3)no2)nc1Cc1cccc(N2CCN(C)CC2)c1` [Example 6, 1-methyl-4-(3-((5-methyl-2-(3-(4-(trifluoromethoxy)phenyl)-1,2,4-oxadiazol-5-yl)thiazol-4-yl)methyl)phenyl)piperazin-1-ium trifluoroacetate] was tested. Which IC50 did it give?
**A.** < 100 nM

**Q.** With `Cn1nc(-c2nc(-c3ccc(OC(F)(F)F)cc3)no2)nc1Cc1ccnc(N2CCNCC2)c1` [Example 8, 4-(4-((1-Methyl-3-(3-(4-(trifluoromethoxy)phenyl)-1,2,4-oxadiazol-5-yl)-1H-1,2,4-triazol-5-yl)methyl)pyridin-2-yl)piperazin-1-ium formate] as the compound, how does the IC50 read?
**A.** < 100 nM

**Q.** With `CN1CCN(c2cc(Cc3nc(-c4nc(-c5ccc(OC(F)(F)F)cc5)no4)nn3C)ccn2)CC1` [Example 9, 1-Methyl-4-(4-((1-methyl-3-(3-(4-(trifluoromethoxy)phenyl)-1,2,4-oxadiazol-5-yl)-1H-1,2,4-triazol-5-yl)methyl)pyridin-2-yl)piperazin-1-ium formate] as the compound, how does the IC50 read?
**A.** < 100 nM

**Q.** `Cc1oc(-c2nc(-c3ccc(OC(F)(F)F)cc3)no2)nc1Cc1cccc(Br)c1` [Example 4, 5-(4-(3-Bromobenzyl)-5-methyloxazol-2-yl)-3-(4-(trifluoromethoxy)phenyl)-1,2,4-oxadiazole] was tested. Which IC50 did it give?
**A.** 1000 to 10000 nM

**Q.** Which IC50 does the source give for `Cc1nc(-c2nc(-c3ccc(OC(F)(F)F)cc3)no2)sc1Cc1cccc(N2CCN(C)CC2)c1` [Example 2, 5-(4-Methyl-5-(3-(4-methylpiperazin-1-yl)benzyl)thiazol-2-yl)-3-(4-(trifluoromethoxy)phenyl)-1,2,4-oxadiazole] here?
**A.** < 100 nM

**Q.** `Cc1nc(-c2nc(-c3ccc(OC(F)(F)F)cc3)no2)oc1Cc1cccc(Br)c1` [Example 1, 5-(5-(3-Bromobenzyl)-4-methyloxazol-2-yl)-3-(4-(trifluoromethoxy)phenyl)-1,2,4-oxadiazole] was tested. Which IC50 did it give?
**A.** 1000 to 10000 nM
